Assay results taken from ChEMBL document CHEMBL4732047, “New imidazopyridines with phosphodiesterase 4 and 7 inhibitory activity and their efficacy in animal models of inflammatory and autoimmune diseases” (Eur J Med Chem, 2021).
Activity calls are given as the source filed them. The rule behind the calls is not given here.

Columns and labels:
[1] = biological target: 3',5'-cyclic-AMP phosphodiesterase 4B (Homo sapiens, UniProt Q07343); assay: Inhibition of human recombinant PDE4B using cAMP as substrate incubated for 20 mins measured by Kinase Glo reagent based microplate reader assay
[2] = biological target: High affinity 3',5'-cyclic-AMP phosphodiesterase 7A (Homo sapiens, UniProt Q13946); assay: Inhibition of human recombinant PDE7A using cAMP as substrate incubated for 20 mins measured by Kinase Glo reagent based microplate reader assay
[3] = biological target: Dual specificity calcium/calmodulin-dependent 3',5'-cyclic nucleotide phosphodiesterase 1B (Homo sapiens, UniProt Q01064); assay: Inhibition of human recombinant PDE1B using cAMP as substrate incubated for 20 mins measured by Kinase Glo reagent based microplate reader assay
[4] = biological target: cAMP and cAMP-inhibited cGMP 3',5'-cyclic phosphodiesterase 10A (Homo sapiens, UniProt Q9Y233); assay: Inhibition of human recombinant PDE10A using cAMP as substrate incubated for 20 mins measured by Kinase Glo reagent based microplate reader assay
[5] = test system: Rattus norvegicus; assay: Antiinflammatory activity in collagen-induced arthritis Lewis rat model assessed as decrease in paw swelling at 20 mg/kg, ip once daily administered on day 20 after collagen treatment and treated until day 40 by macroscopic observation analysis; assay type: functional, organism-based
[6] = Clearance in male Wistar rat at 10 mg/kg, ip; assay type: ADME, organism-based; details: in vivo
[7] = Apparent volume of distribution during terminal phase in male Wistar rat at 10 mg/kg, ip; assay type: ADME, organism-based; details: in vivo, read-out: Vz/F
[8] = Clearance in female Lewis rat at 10 mg/kg, iv; assay type: ADME, organism-based; details: in vivo
[9] = AUC in male Wistar rat at 10 mg/kg, ip; assay type: ADME, organism-based; design: dose 10 mg/kg; details: in vivo
[10] = Apparent volume of distribution during terminal phase in female Lewis rat at 10 mg/kg, iv; assay type: ADME, organism-based; details: in vivo
[11] = AUC in female Lewis rat at 10 mg/kg, iv; assay type: ADME, organism-based; design: dose 10 mg/kg; details: in vivo
[12] = Elimination half life in female Lewis rat at 10 mg/kg, iv; assay type: ADME, organism-based; details: in vivo, read-out: beta t1/2
[13] = Elimination half life in male Wistar rat at 10 mg/kg, ip; assay type: ADME, organism-based; details: in vivo, read-out: beta t1/2
[14] = Cmax in female Lewis rat at 10 mg/kg, iv; assay type: ADME, organism-based; design: route intravenous, dose 10 mg/kg; details: in vivo
[15] = Cmax in male Wistar rat at 10 mg/kg, ip; assay type: ADME, organism-based; design: route intraperitoneal, dose 10 mg/kg; details: in vivo
[16] = Tmax in female Lewis rat at 10 mg/kg, iv; assay type: ADME, organism-based; details: in vivo
[17] = Tmax in male Wistar rat at 10 mg/kg, ip; assay type: ADME, organism-based; details: in vivo
[18] = biological target: cGMP-dependent 3',5'-cyclic phosphodiesterase (Homo sapiens, UniProt O00408); assay: Inhibition of human recombinant PDE2A using cGMP as substrate incubated for 20 mins measured by Kinase Glo reagent based microplate reader assay
[19] = biological target: cGMP-inhibited 3',5'-cyclic phosphodiesterase 3A (Homo sapiens, UniProt Q14432); assay: Inhibition of human recombinant PDE3A using cAMP as substrate incubated for 20 mins measured by Kinase Glo reagent based microplate reader assay
[20] = biological target: 3',5'-cyclic-AMP phosphodiesterase 4D (Homo sapiens, UniProt Q08499); assay: Inhibition of human recombinant PDE4D using cAMP as substrate incubated for 20 mins measured by Kinase Glo reagent based microplate reader assay
[21] = biological target: cGMP-specific 3',5'-cyclic phosphodiesterase (Homo sapiens, UniProt O76074); assay: Inhibition of human recombinant PDE5A using cGMP as substrate incubated for 20 mins measured by Kinase Glo reagent based microplate reader assay
[22] = test system: Mus musculus; assay: Hepatoprotective activity in ConA-induced BALB/c hepatitis mouse model assessed as decrease in serum alanine aminotransferase level at 50 mg/kg, ip administration and measured after 8 hrs relative to control; assay type: functional, organism-based
[23] = test system: Mus musculus; assay: Hepatoprotective activity in ConA-induced BALB/c hepatitis mouse model assessed as decrease in serum aspartate aminotransferase level at 50 mg/kg, ip administration and measured after 8 hrs relative to control; assay type: functional, organism-based
[24] = test system: Mus musculus; assay: Hepatoprotective activity in ConA-induced BALB/c hepatitis mouse model assessed as decrease in serum alanine aminotransferase level at 10 mg/kg, ip administration and measured after 8 hrs relative to control; assay type: functional, organism-based
[25] = test system: Mus musculus; assay: Hepatoprotective activity in ConA-induced BALB/c hepatitis mouse model assessed as decrease in serum aspartate aminotransferase level at 10 mg/kg, ip administration and measured after 8 hrs relative to control; assay type: functional, organism-based
[26] = test system: Mus musculus; assay: Hepatoprotective activity in ConA-induced BALB/c hepatitis mouse model assessed as decrease in serum IL-6 level at 50 mg/kg, ip administration and measured after 8 hrs relative to control; assay type: functional, organism-based
[27] = test system: Mus musculus; assay: Hepatoprotective activity in ConA-induced BALB/c hepatitis mouse model assessed as decrease in serum IFNgamma level at 50 mg/kg, ip administration and measured after 8 hrs relative to control; assay type: functional, organism-based
[28] = test system: Mus musculus; assay: Hepatoprotective activity in ConA-induced BALB/c hepatitis mouse model assessed as decrease in serum IL-6 level at 10 mg/kg, ip administration and measured after 8 hrs relative to control; assay type: functional, organism-based
[29] = test system: Mus musculus; assay: Hepatoprotective activity in ConA-induced BALB/c hepatitis mouse model assessed as decrease in serum IFNgamma level at 10 mg/kg, ip administration and measured after 8 hrs relative to control; assay type: functional, organism-based
[30] = test system: Rattus norvegicus; assay: Antiinflammatory activity in LPS-induced Wistar rat endotoxemia model assessed as decrease in plasma TNFalpha level at 20 mg/kg, ip measured after 1 hr; assay type: functional; design: scale not given: the % may be the effect or the level left
[31] = test system: Rattus norvegicus; assay: Antiinflammatory activity in LPS-induced Wistar rat endotoxemia model assessed as decrease in plasma TNFalpha level at 20 mg/kg, ip measured after 1.5 hr; assay type: functional; design: scale not given: the % may be the effect or the level left
[32] = test system: Rattus norvegicus; assay: Antiinflammatory activity in LPS-induced Wistar rat endotoxemia model assessed as decrease in plasma TNFalpha level at 20 mg/kg, ip measured after 2 hr; assay type: functional; design: scale not given: the % may be the effect or the level left
[33] = Brain to serum concentration ratio in C57BL/6 mouse at 50 mg/kg, ip measured after 5 mins; assay type: ADME, organism-based
[34] = Brain to serum concentration ratio in C57BL/6 mouse at 50 mg/kg, ip measured after 15 mins; assay type: ADME, organism-based
[35] = Brain to serum concentration ratio in C57BL/6 mouse at 50 mg/kg, ip measured after 60 mins; assay type: ADME, organism-based
[36] = test system: Mus musculus; assay: Immunosuppressive activity in MOG (35 to 55 residues) toxin-induced experimental autoimmune encephalomyelitis female C57BL/6 mouse model assessed as reduction in clinical scores at 50 mg/kg, ip administered […] once daily starting from day 1 post immunization and measured 15 days; assay type: functional, organism-based; details: time 15.0 day
[37] = Drug uptake in C57BL/6 mouse brain at 50 mg/kg, ip measured up to 60 mins; assay type: ADME, organism-based; details: read-out: Drug uptake
[38] = test system: Mus musculus; assay: Immunosuppressive activity in MOG (35 to 55 residues) toxin-induced experimental autoimmune encephalomyelitis C57BL/6 mouse model assessed reduction in disease onset at 50 mg/kg, ip; assay type: functional, organism-based
[39] = Selectivity index, ratio of IC50 for inhibition of human recombinant PDE4D to IC50 for inhibition of human recombinant PDE4B
[40] = Selectivity index, ratio of IC50 for inhibition of human recombinant PDE3A to IC50 for inhibition of human recombinant PDE4B
[41] = Elimination half life in Wistar rat; assay type: ADME; details: in vivo, read-out: beta t1/2
[42] = test system: Mus musculus; assay: Immunosuppressive activity in MOG (35 to 55 residues) toxin-induced experimental autoimmune encephalomyelitis C57BL/6 mouse model assessed decrease in polymorphonuclear leukocytes infiltration into spinal cored at 50 mg/kg, ip relative to untreated control; assay type: functional, organism-based
[43] = test system: Mus musculus; assay: Immunosuppressive activity in MOG (35 to 55 residues) toxin-induced experimental autoimmune encephalomyelitis C57BL/6 mouse model assessed decrease in macrophages infiltration into spinal cored at 50 mg/kg, ip relative to untreated control; assay type: functional, organism-based
[44] = test system: Mus musculus; assay: Immunosuppressive activity in MOG (35 to 55 residues) toxin-induced experimental autoimmune encephalomyelitis C57BL/6 mouse model assessed as reduction in white matter vacuolation in cerebellum at 50 mg/kg, ip relative to untreated control; assay type: functional, organism-based
[45] = test system: Rattus norvegicus; assay: Antiinflammatory activity in LPS-induced Wistar rat endotoxemia model assessed as decrease in plasma TNFalpha level at 5 mg/kg, ip measured after 1 hr; assay type: functional; design: scale not given: the % may be the effect or the level left
[46] = test system: Rattus norvegicus; assay: Antiinflammatory activity in LPS-induced Wistar rat endotoxemia model assessed as decrease in plasma TNFalpha level at 5 mg/kg, ip measured after 1.5 hr; assay type: functional; design: scale not given: the % may be the effect or the level left
[47] = test system: Rattus norvegicus; assay: Antiinflammatory activity in LPS-induced Wistar rat endotoxemia model assessed as decrease in plasma TNFalpha level at 5 mg/kg, ip measured after 2 hr; assay type: functional; design: scale not given: the % may be the effect or the level left

Sequence of High affinity 3',5'-cyclic-AMP phosphodiesterase 7A (Q13946 whole entry): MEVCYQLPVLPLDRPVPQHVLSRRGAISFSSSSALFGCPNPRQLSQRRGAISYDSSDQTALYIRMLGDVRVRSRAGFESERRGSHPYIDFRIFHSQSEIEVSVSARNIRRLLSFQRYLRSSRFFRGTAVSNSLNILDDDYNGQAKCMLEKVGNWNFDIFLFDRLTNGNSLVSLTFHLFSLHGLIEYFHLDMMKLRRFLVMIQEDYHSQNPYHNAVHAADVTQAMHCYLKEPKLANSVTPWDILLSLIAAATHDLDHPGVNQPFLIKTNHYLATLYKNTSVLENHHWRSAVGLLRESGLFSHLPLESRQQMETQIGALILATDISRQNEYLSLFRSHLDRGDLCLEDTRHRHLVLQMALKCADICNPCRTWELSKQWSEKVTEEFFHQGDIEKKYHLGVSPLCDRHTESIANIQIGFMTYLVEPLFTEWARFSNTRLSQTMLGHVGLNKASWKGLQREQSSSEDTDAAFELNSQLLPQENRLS
Sequence of 3',5'-cyclic-AMP phosphodiesterase 4B (Q07343 whole entry): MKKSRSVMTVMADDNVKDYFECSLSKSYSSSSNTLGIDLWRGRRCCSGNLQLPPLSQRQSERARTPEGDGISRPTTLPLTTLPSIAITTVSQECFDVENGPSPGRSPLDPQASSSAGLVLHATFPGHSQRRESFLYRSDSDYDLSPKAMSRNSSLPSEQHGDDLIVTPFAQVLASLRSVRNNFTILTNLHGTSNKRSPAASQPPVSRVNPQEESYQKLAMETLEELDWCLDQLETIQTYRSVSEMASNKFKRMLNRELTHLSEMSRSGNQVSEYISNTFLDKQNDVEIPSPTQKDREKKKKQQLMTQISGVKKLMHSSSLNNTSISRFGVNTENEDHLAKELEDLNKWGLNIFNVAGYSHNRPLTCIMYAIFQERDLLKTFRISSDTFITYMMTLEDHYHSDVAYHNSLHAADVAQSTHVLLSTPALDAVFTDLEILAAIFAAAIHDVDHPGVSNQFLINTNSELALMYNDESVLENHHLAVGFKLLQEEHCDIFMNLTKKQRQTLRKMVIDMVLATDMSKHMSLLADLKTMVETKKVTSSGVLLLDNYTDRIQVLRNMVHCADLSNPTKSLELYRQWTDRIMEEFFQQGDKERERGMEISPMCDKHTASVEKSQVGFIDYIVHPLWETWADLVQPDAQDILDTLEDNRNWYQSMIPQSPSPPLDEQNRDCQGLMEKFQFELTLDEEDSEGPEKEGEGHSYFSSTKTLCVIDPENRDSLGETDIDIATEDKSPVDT
Sequence of Dual specificity calcium/calmodulin-dependent 3',5'-cyclic nucleotide phosphodiesterase 1B (Q01064 whole entry): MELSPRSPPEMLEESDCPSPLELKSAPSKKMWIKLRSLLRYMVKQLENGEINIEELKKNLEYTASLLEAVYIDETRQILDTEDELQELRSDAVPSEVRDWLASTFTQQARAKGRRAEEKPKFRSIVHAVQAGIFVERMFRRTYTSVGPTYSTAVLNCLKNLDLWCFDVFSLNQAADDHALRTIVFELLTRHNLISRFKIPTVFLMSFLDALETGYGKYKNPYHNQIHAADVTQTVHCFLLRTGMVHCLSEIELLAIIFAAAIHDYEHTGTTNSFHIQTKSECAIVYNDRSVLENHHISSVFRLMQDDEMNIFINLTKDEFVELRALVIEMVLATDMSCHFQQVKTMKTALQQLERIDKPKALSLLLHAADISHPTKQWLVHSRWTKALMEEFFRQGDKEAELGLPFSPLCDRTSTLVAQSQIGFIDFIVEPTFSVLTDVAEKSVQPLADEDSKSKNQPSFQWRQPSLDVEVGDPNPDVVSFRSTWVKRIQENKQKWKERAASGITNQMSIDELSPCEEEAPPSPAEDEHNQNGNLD
Sequence of cGMP-inhibited 3',5'-cyclic phosphodiesterase 3A (Q14432 whole entry): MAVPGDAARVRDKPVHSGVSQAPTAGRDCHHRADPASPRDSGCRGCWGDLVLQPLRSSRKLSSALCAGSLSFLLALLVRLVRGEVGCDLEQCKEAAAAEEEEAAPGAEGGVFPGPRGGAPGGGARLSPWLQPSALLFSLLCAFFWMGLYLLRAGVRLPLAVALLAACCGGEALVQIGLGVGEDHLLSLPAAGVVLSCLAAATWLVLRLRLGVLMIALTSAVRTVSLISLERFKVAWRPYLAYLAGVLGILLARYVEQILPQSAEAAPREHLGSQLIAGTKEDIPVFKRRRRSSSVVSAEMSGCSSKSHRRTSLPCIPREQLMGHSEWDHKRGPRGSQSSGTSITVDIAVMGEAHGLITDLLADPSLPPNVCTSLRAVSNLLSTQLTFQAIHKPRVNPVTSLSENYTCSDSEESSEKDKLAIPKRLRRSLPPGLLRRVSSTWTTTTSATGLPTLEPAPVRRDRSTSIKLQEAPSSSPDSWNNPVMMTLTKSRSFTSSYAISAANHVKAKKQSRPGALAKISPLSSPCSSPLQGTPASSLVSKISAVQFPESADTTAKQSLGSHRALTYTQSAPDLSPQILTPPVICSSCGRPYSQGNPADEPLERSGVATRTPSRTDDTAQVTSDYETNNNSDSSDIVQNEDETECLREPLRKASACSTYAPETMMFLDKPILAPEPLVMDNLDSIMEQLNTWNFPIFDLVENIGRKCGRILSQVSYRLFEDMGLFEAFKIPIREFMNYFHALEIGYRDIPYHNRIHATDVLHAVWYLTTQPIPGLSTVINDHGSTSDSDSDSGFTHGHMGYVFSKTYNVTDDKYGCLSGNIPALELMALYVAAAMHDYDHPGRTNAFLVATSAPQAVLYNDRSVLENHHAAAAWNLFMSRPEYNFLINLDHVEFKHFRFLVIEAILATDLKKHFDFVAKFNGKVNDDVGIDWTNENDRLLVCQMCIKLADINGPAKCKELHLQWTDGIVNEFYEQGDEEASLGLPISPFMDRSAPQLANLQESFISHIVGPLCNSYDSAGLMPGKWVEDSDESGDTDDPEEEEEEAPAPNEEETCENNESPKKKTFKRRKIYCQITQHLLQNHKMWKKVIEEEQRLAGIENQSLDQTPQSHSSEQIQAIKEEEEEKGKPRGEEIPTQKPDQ
Sequence of cAMP and cAMP-inhibited cGMP 3',5'-cyclic phosphodiesterase 10A (Q9Y233 whole entry): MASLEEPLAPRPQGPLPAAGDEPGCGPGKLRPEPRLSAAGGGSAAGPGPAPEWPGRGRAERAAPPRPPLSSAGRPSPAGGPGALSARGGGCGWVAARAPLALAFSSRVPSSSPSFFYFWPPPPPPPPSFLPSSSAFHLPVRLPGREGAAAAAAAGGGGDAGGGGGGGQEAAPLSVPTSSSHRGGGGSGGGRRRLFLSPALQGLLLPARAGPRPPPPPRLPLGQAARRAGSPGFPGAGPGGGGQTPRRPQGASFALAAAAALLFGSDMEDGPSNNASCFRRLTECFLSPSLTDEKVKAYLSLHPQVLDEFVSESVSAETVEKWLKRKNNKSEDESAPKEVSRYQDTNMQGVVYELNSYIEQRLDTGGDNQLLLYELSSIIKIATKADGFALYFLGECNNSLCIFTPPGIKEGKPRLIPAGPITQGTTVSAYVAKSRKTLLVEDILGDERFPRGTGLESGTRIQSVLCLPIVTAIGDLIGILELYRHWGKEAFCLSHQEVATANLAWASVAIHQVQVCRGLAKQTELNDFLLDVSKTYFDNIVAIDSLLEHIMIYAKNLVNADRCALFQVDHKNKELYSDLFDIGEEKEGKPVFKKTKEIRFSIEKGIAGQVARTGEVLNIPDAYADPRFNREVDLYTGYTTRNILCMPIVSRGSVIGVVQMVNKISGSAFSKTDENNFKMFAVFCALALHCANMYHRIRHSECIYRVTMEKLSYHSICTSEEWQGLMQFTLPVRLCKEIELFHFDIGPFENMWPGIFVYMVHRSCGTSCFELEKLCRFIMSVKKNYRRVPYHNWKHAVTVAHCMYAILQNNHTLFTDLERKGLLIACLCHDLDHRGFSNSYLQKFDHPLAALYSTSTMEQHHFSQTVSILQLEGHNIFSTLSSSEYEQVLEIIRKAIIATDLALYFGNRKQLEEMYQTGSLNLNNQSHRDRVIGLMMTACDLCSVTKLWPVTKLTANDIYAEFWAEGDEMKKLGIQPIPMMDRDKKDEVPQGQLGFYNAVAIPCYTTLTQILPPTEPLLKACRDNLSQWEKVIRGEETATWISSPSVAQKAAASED
Sequence of cGMP-dependent 3',5'-cyclic phosphodiesterase (O00408 whole entry): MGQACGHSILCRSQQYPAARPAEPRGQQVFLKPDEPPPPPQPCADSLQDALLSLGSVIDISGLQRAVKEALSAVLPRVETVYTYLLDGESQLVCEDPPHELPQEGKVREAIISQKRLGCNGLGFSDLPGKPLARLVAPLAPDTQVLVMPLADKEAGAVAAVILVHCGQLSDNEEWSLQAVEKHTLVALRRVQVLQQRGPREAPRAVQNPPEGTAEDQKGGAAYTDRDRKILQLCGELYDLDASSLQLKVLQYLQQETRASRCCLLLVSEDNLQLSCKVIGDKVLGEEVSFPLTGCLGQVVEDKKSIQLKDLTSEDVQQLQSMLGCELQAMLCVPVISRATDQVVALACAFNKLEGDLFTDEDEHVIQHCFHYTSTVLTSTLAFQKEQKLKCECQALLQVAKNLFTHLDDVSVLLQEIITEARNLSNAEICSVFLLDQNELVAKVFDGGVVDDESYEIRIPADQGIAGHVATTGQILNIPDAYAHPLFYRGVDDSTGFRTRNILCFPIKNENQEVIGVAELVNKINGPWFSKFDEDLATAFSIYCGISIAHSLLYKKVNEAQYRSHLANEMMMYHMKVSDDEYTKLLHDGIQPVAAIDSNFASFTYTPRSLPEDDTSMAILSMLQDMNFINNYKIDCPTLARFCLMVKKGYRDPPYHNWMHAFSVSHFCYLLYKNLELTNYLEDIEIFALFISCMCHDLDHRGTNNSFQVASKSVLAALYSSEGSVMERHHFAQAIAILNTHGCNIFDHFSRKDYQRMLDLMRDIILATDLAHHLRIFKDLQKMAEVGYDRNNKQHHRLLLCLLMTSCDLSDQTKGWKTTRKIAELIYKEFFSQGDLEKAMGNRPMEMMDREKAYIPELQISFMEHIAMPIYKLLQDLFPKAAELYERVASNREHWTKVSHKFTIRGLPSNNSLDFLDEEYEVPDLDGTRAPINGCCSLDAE

Work on `c1coc(-c2nc3c(NCCc4cccs4)nccc3n2C2CCCC2)c1` yielded an IC50 [1] of 2.8 µM and an IC50 [2] greater than 200 µM.
`CCCCCn1c(-c2ccccc2)nc2c(NCCCO)ccnc21` gave an IC50 [1] of 23.2 µM and an IC50 [2] greater than 200 µM.
`CCCCCn1c(-c2ccco2)nc2c(N)ccnc21` showed an IC50 [1] of 39.9 µM and an IC50 [2] greater than 200 µM.
`CCCCCn1c(-c2ccccc2)nc2c(NCCCO)nccc21` showed an IC50 [1] of 60 µM and an IC50 [2] greater than 200 µM.
Molecule `CCCCCn1c(-c2ccccc2)nc2c(NCCc3cccs3)ccnc21` has an IC50 [1] of 7.09 µM and an IC50 [2] greater than 200 µM.
For `CCOC(=O)C1=C[C@]2(CC)CCCN3CCc4c(n1c1ccccc41)[C@@H]32` [VINPOCETINE], the IC50 [3] was 7.99 µM.
In the case of `COCCCNc1ccnc2c1nc(-c1ccco1)n2C1CCCC1`, the IC50 [1] is reported as 8.6 µM and the IC50 [2] is reported as 90.5 µM.
`OCCCNc1ccnc2c1nc(-c1ccco1)n2C1CCCC1` gave an IC50 [4] of 5.75 µM, an IC50 [1] of 2.53 µM and an IC50 [2] of 88 µM. For the same molecule, the IC50 [3] was 8.45 µM, the Activity [5] was “Active” and the CL/F [6] was 140 mL/min/kg. It also gave a Vd/F [7] of 3.92 L/kg, a clearance [8] of 70 mL/min/kg and an AUC [9] of 1230 ng·h/mL. For the same molecule, the Vz/F [10] was 1.85 L/kg, the AUC [11] was 2530 ng·h/mL and the half-life [12] was 19.5 min. It also gave a half-life [13] of 20.1 min, a Cmax [14] of 10600 ng/mL and a Cmax [15] of 1940 ng/mL. It also gave a Tmax [16] of 0 h, a Tmax [17] of 15 min and an IC50 [18] of 40.7 µM. It also gave an IC50 [19] of 47.3 µM, an IC50 [20] of 35.6 µM and an IC50 [21] of 2.71 µM. For the same molecule, the Activity [22] was “Active”, the Activity [23] was “Active” and the Activity [24] was “Active”. For the same molecule, the Activity [25] was “Active”, the Activity [26] was “Active” and the Activity [27] was “Active”. The Activity [28] was “Active”, the Activity [29] was “Active” and the Activity [30] was 49%. It also gave an Activity [31] of 51%, an Activity [32] of 44% and a Kp at 5 min [33] of 2.96. The Kp at […] [34] was 5.87, the Kp at 1 h [35] was 4.34 and the Activity [36] was “Active”. The concentration at 1 h [37] was no less than 830 ng/mL, the Activity [38] was “Active” and the Ratio IC50 [39] was greater than 10. The Ratio IC50 [40] was greater than 10, the half-life [41] was 30 min and the Activity [42] was “Active”. The Activity [43] was “Active” and the Activity [44] was “Active”.
With `COc1ccc(C2CNC(=O)C2)cc1OC1CCCC1` (stereo not drawn) [ROLIPRAM] the Activity [22] was “Active”, the Activity [23] was “Active” and the Activity [24] was “Active”. The Activity [25] was “Active”, the Activity [26] was “Active” and the Activity [27] was “Active”. The Activity [28] was “Active”, the Activity [29] was “Active” and the Activity [45] was 85.6%. For the same molecule, the Activity [46] was 73.5% and the Activity [47] was 77.1%.
